Source: PubChem BioAssay (NCI)
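All cell lines were grown in 96-well plates and treated with compound for 48 hours. GI50 = concentration required for 50% inhibition of growth. TGI denotes the concentration required for complete inhibition of growth.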

Assays:
Experiment in all cases: DTP human tumour cell line panel, 48 h
A498 renal = test system: A498 renal
T-47D breast = test system: T-47D breast
ACHN renal = test system: ACHN renal
HCC-2998 colon = test system: HCC-2998 colon
NCI-H460 lung = test system: NCI-H460 lung
M14 melanoma = test system: M14 melanoma
MCF7 breast = test system: MCF7 breast
DU-145 prostate = test system: DU-145 prostate
KM12 colon = test system: KM12 colon
UACC-257 melanoma = test system: UACC-257 melanoma
MOLT-4 leukemia = test system: MOLT-4 leukemia
RPMI-8226 leukemia = test system: RPMI-8226 leukemia
RXF 393 renal = test system: RXF 393 renal
SF-268 CNS = test system: SF-268 CNS
SK-OV-3 ovarian = test system: SK-OV-3 ovarian
NCI/ADR-RES ovarian = test system: NCI/ADR-RES ovarian
786-0 renal = test system: 786-0 renal
UACC-62 melanoma = test system: UACC-62 melanoma
OVCAR-8 ovarian = test system: OVCAR-8 ovarian
NCI-H522 lung = test system: NCI-H522 lung
SN12C renal = test system: SN12C renal
MALME-3M melanoma = test system: MALME-3M melanoma
HCT-15 colon = test system: HCT-15 colon
BT-549 breast = test system: BT-549 breast
HT29 colon = test system: HT29 colon
SF-295 CNS = test system: SF-295 CNS
K-562 leukemia = test system: K-562 leukemia
OVCAR-5 ovarian = test system: OVCAR-5 ovarian
SK-MEL-2 melanoma = test system: SK-MEL-2 melanoma
MDA-MB-231 breast = test system: MDA-MB-231 breast
UO-31 renal = test system: UO-31 renal
LOX IMVI melanoma = test system: LOX IMVI melanoma
PC-3 prostate = test system: PC-3 prostate
SNB-19 CNS = test system: SNB-19 CNS
NCI-H23 lung = test system: NCI-H23 lung
U251 CNS = test system: U251 CNS
OVCAR-4 ovarian = test system: OVCAR-4 ovarian
SK-MEL-5 melanoma = test system: SK-MEL-5 melanoma
HOP-62 NSCLC = test system: HOP-62 NSCLC
OVCAR-3 ovarian = test system: OVCAR-3 ovarian
NCI-H226 lung = test system: NCI-H226 lung
SF-539 CNS = test system: SF-539 CNS
MDA-MB-435 = test system: MDA-MB-435
COLO 205 colon = test system: COLO 205 colon
EKVX NSCLC = test system: EKVX NSCLC
HOP-92 NSCLC = test system: HOP-92 NSCLC
SR leukemia = test system: SR leukemia
SW-620 colon = test system: SW-620 colon
HS 578T breast = test system: HS 578T breast
CCRF-CEM leukemia = test system: CCRF-CEM leukemia
TK-10 renal = test system: TK-10 renal
SK-MEL-28 melanoma = test system: SK-MEL-28 melanoma
HCT-116 colon = test system: HCT-116 colon
CAKI-1 renal = test system: CAKI-1 renal
A549 NSCLC = test system: A549 NSCLC
IGROV1 ovarian = test system: IGROV1 ovarian
SNB-75 CNS = test system: SNB-75 CNS
HL-60(TB) leukemia = test system: HL-60(TB) leukemia

Structure (SMILES): COC(=O)C(=Cc1ccccc1[N+](=O)[O-])C(=O)OC
- GI50 (A498 renal): 2.75 µM
- TGI (A498 renal): 8.23 µM
- GI50 (T-47D breast): 2.12 µM
- TGI (T-47D breast): 11 µM
- GI50 (ACHN renal): 4.33 µM
- TGI (ACHN renal): 15.6 µM
- GI50 (HCC-2998 colon): 2.68 µM
- TGI (HCC-2998 colon): 7.36 µM
- GI50 (NCI-H460 lung): 3.41 µM
- TGI (NCI-H460 lung): 13.7 µM
- GI50 (M14 melanoma): 3.04 µM
- TGI (M14 melanoma): 14 µM
- GI50 (MCF7 breast): 2.35 µM
- TGI (MCF7 breast): 11.2 µM
- GI50 (DU-145 prostate): 2.29 µM
- TGI (DU-145 prostate): 6.61 µM
- GI50 (KM12 colon): 2.99 µM
- TGI (KM12 colon): 10 µM
- GI50 (UACC-257 melanoma): 4.06 µM
- TGI (UACC-257 melanoma): 17.3 µM
- GI50 (MOLT-4 leukemia): 2.31 µM
- TGI (MOLT-4 leukemia): 7.21 µM
- GI50 (RPMI-8226 leukemia): 1.27 µM
- TGI (RPMI-8226 leukemia): 3.63 µM
- GI50 (RXF 393 renal): 1.87 µM
- TGI (RXF 393 renal): 4.3 µM
- GI50 (SF-268 CNS): 3.06 µM
- TGI (SF-268 CNS): 12.7 µM
- GI50 (SK-OV-3 ovarian): 10.2 µM
- TGI (SK-OV-3 ovarian): 21.8 µM
- GI50 (NCI/ADR-RES ovarian): 2.31 µM
- TGI (NCI/ADR-RES ovarian): 5.77 µM
- GI50 (786-0 renal): 4.24 µM
- TGI (786-0 renal): 14.2 µM
- GI50 (UACC-62 melanoma): 3.79 µM
- TGI (UACC-62 melanoma): 15.5 µM
- GI50 (OVCAR-8 ovarian): 3.53 µM
- TGI (OVCAR-8 ovarian): 40.8 µM
- GI50 (NCI-H522 lung): 1.9 µM
- TGI (NCI-H522 lung): 6.65 µM
- GI50 (SN12C renal): 3.63 µM
- TGI (SN12C renal): 18.1 µM
- GI50 (MALME-3M melanoma): 4.44 µM
- TGI (MALME-3M melanoma): 18.1 µM
- GI50 (HCT-15 colon): 2.08 µM
- TGI (HCT-15 colon): 10.7 µM
- GI50 (BT-549 breast): 7.14 µM
- TGI (BT-549 breast): 19.8 µM
- GI50 (HT29 colon): 3.54 µM
- TGI (HT29 colon): 14.4 µM
- GI50 (SF-295 CNS): 4.08 µM
- TGI (SF-295 CNS): 17.3 µM
- GI50 (K-562 leukemia): 2.51 µM
- TGI (K-562 leukemia): 9.48 µM
- GI50 (OVCAR-5 ovarian): 3.13 µM
- TGI (OVCAR-5 ovarian): 8.35 µM
- GI50 (SK-MEL-2 melanoma): 3.61 µM
- TGI (SK-MEL-2 melanoma): 16.4 µM
- GI50 (MDA-MB-231 breast): 3.68 µM
- TGI (MDA-MB-231 breast): 13.5 µM
- GI50 (UO-31 renal): 2.31 µM
- TGI (UO-31 renal): 9.8 µM
- GI50 (LOX IMVI melanoma): 2.08 µM
- TGI (LOX IMVI melanoma): 5.88 µM
- GI50 (PC-3 prostate): 4.63 µM
- TGI (PC-3 prostate): 21.1 µM
- GI50 (SNB-19 CNS): 5.41 µM
- TGI (SNB-19 CNS): 21.6 µM
- GI50 (NCI-H23 lung): 2.62 µM
- TGI (NCI-H23 lung): 9.83 µM
- GI50 (U251 CNS): 3.23 µM
- TGI (U251 CNS): 13.9 µM
- GI50 (OVCAR-4 ovarian): 3.94 µM
- TGI (OVCAR-4 ovarian): 16.1 µM
- GI50 (SK-MEL-5 melanoma): 2.55 µM
- TGI (SK-MEL-5 melanoma): 9.2 µM
- GI50 (HOP-62 NSCLC): 13.6 µM
- TGI (HOP-62 NSCLC): 27.1 µM
- GI50 (OVCAR-3 ovarian): 2.28 µM
- TGI (OVCAR-3 ovarian): 5.67 µM
- GI50 (NCI-H226 lung): 8.34 µM
- TGI (NCI-H226 lung): 24.8 µM
- GI50 (SF-539 CNS): 2.63 µM
- TGI (SF-539 CNS): 7.5 µM
- GI50 (MDA-MB-435): 2.26 µM
- TGI (MDA-MB-435): 10.2 µM
- GI50 (COLO 205 colon): 3.05 µM
- TGI (COLO 205 colon): 11 µM
- GI50 (EKVX NSCLC): 4.23 µM
- TGI (EKVX NSCLC): 17 µM
- GI50 (HOP-92 NSCLC): 2.38 µM
- TGI (HOP-92 NSCLC): 7.4 µM
- GI50 (SR leukemia): 1.04 µM
- TGI (SR leukemia): 4.84 µM
- GI50 (SW-620 colon): 3.9 µM
- TGI (SW-620 colon): 12.7 µM
- GI50 (HS 578T breast): 2.04 µM
- TGI (HS 578T breast): 8.09 µM
- GI50 (CCRF-CEM leukemia): 1.81 µM
- TGI (CCRF-CEM leukemia): 5.16 µM
- GI50 (TK-10 renal): 5.93 µM
- TGI (TK-10 renal): 18.1 µM
- GI50 (SK-MEL-28 melanoma): 2.16 µM
- TGI (SK-MEL-28 melanoma): 6.06 µM
- GI50 (HCT-116 colon): 2.69 µM
- TGI (HCT-116 colon): 9.55 µM
- GI50 (CAKI-1 renal): 3.61 µM
- TGI (CAKI-1 renal): 14.1 µM
- GI50 (A549 NSCLC): 3.98 µM
- TGI (A549 NSCLC): 21.7 µM
- GI50 (IGROV1 ovarian): 3.41 µM
- TGI (IGROV1 ovarian): 12 µM
- GI50 (SNB-75 CNS): 2.75 µM
- TGI (SNB-75 CNS): 15.3 µM
- GI50 (HL-60(TB) leukemia): 2.78 µM
- TGI (HL-60(TB) leukemia): > 100 µM
